Assay results as given in ChEMBL document CHEMBL4152377, “Design and Activity of Specific Hypoxia-Inducible Factor-2α (HIF-2α) Inhibitors for the Treatment of Clear Cell Renal Cell Carcinoma: Discovery of Clinical Candidate ( S)-3-((2,2-Difluoro-1-hydroxy-7-(methylsulfonyl)-2,3-dihydro-1 H-inden-4-yl)oxy)-5-fluorobenzonitrile (PT2385)” (J Med Chem, 2018).
In brackets after ≈: the same amount, converted by molar mass. Activity calls are given as the source filed them. No cut-off for these calls is given here.

How the values were obtained:
[1] = Protein binding in mouse plasma at 10 uM after 4 hrs by LC-MS/MS analysis; format: ADME, cell-free; details: read-out: PPB (converted)
[2] = Plasma concentration in mouse after 12 hrs; format: ADME, cell-free
[3] = Apparent permeability across apical to basolateral side in MDCK-MDR1 cells at 1 uM after 1 hr by LC/MS/MS analysis; format: ADME, cell-based, Canis lupus familiaris; details: dog
[4] = Clearance in CD1 mouse at 3 mg/kg, iv by UPLC analysis; format: ADME, organism-based; details: in vivo
[5] = AUCt in CD1 mouse at 10 mg/kg, po by UPLC analysis; format: ADME, organism-based; details: in vivo
[6] = Half life in CD1 mouse at 10 mg/kg, po by UPLC analysis; format: ADME, organism-based; details: in vivo
[7] = Oral bioavailability in CD1 mouse at 10 mg/kg by UPLC analysis; format: ADME, organism-based; details: in vivo
[8] = Clearance in Sprague-Dawley rat at 3 mg/kg, iv by UPLC analysis; format: ADME, organism-based; details: in vivo
[9] = AUCt in Sprague-Dawley rat at 10 mg/kg, po via gavage by UPLC analysis; format: ADME, organism-based; details: in vivo
[10] = system: Canis familiaris; assay: AUCt in Beagle dog at 10 mg/kg, po via gavage by UPLC analysis; format: ADME, organism-based, Canis lupus familiaris; details: in vivo
[11] = Oral bioavailability in Sprague-Dawley rat at 10 mg/kg administered via gavage by UPLC analysis; format: ADME, organism-based; details: in vivo
[12] = Thermodynamic solubility of the compound in phosphate buffer at pH 7.4 after 24 hrs by HPLC-UV analysis; format: physicochemical; details: read-out: Therm_solubility
[13] = Intrinsic clearance in rat liver microsomes at 1 uM measured up to 30 mins by LC-MS/MS analysis; format: ADME, microsome; details: read-out: CLH
[14] = Intrinsic clearance in dog liver microsomes at 1 uM measured up to 30 mins by LC-MS/MS analysis; format: ADME, Canis lupus familiaris, microsome; details: read-out: CLH
[15] = Intrinsic clearance in monkey liver microsomes at 1 uM measured up to 30 mins by LC-MS/MS analysis; format: ADME, Macaca mulatta, microsome; details: rhesus monkey, read-out: CLH
[16] = molecular target: T1, Cytochrome P450 2B6 (Homo sapiens, UniProt P20813); assay: Inhibition of CYP2B6 in human liver microsomes using bupropion as substrate after 10 mins in presence of NADPH by LC-MS/MS analysis; format: ADME
T1 sequence (P20813 whole entry): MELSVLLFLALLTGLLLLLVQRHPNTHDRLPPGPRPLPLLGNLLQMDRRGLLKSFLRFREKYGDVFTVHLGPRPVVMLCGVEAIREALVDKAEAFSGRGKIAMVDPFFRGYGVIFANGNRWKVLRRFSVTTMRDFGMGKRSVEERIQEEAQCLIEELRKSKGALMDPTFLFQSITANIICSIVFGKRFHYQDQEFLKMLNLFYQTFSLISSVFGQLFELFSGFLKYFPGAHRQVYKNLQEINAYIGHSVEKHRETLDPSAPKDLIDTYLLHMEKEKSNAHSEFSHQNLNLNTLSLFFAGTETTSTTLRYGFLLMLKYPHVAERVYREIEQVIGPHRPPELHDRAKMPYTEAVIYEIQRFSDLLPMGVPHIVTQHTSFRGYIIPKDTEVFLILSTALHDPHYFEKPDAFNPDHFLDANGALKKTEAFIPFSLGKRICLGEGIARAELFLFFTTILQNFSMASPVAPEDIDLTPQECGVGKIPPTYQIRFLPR

[17] = molecular target: T2, Cytochrome P450 2C8 (Homo sapiens, UniProt P10632); assay: Inhibition of CYP2C8 in human liver microsomes using amodiaquine as substrate after 10 mins in presence of NADPH by LC-MS/MS analysis; format: ADME
T2 sequence (P10632 whole entry): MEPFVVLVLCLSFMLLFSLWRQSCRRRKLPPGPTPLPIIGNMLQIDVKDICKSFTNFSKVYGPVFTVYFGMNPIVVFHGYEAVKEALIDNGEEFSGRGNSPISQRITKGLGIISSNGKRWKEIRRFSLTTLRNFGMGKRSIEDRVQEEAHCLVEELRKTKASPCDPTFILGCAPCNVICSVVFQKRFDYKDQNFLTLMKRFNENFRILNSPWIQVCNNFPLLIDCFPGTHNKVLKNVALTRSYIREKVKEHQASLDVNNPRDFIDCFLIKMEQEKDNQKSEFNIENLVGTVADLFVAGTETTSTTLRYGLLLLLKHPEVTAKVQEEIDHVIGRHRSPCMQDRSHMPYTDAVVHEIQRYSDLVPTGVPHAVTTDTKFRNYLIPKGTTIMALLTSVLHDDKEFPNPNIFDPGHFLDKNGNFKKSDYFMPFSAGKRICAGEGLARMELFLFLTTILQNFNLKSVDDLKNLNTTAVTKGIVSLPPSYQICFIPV

[18] = molecular target: Cytochrome P450 2C9 (Homo sapiens, UniProt P11712); assay: Inhibition of CYP2C9 in human liver microsomes using diclofenac as substrate after 10 mins in presence of NADPH by LC-MS/MS analysis; format: ADME
Cytochrome P450 2C9, sequence (P11712 whole entry): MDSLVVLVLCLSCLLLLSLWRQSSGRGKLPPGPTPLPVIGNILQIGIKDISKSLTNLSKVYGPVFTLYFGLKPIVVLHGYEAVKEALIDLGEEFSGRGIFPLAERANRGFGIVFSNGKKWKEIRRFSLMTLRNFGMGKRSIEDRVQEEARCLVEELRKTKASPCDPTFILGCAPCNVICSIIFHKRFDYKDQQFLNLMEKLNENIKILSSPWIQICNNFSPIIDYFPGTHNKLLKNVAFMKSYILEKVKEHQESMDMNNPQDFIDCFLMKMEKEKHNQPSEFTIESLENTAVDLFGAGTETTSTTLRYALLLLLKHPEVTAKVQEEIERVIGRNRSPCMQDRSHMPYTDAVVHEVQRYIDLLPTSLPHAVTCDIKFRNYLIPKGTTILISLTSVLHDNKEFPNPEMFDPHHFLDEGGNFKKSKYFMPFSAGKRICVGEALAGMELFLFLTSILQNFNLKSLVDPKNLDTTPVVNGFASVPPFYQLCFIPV

[19] = molecular target: Cytochrome P450 3A4 (Homo sapiens, UniProt P08684); assay: Inhibition of CYP3A4 in human liver microsomes using midazolam as substrate after 10 mins in presence of NADPH by LC-MS/MS analysis; format: ADME
Cytochrome P450 3A4, sequence (P08684 whole entry): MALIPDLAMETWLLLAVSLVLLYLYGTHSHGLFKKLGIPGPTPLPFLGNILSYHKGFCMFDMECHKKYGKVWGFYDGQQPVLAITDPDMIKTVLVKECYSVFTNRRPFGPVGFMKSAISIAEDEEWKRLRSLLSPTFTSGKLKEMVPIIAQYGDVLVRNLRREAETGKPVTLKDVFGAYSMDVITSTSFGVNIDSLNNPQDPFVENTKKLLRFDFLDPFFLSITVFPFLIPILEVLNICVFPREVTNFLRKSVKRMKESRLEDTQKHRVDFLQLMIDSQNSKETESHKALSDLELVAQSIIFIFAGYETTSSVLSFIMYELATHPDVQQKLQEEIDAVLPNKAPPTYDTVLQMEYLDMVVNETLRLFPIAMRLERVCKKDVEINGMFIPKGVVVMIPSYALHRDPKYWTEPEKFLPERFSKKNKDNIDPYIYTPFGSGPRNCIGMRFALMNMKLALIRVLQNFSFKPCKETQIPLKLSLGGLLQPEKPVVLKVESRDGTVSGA

[20] = Protein binding in human plasma at 10 uM after 4 hrs by LC-MS/MS analysis; format: ADME, cell-free; details: read-out: PPB (converted)
[21] = Protein binding in rat plasma at 10 uM after 4 hrs by LC-MS/MS analysis; format: ADME, cell-free; details: read-out: PPB (converted)
[22] = Protein binding in dog plasma at 10 uM after 4 hrs by LC-MS/MS analysis; format: ADME, cell-free, Canis lupus familiaris; details: read-out: PPB (converted)
[23] = Protein binding in monkey plasma at 10 uM after 4 hrs by LC-MS/MS analysis; format: ADME, cell-free, Macaca mulatta; details: rhesus monkey, read-out: PPB (converted)
[24] = system: Mus musculus; assay: In vivo inhibition of HIF-2alpha in SCID/Biege mouse xenografted with human 786-O cells assessed as reduction in VEGFA mRNA levels at 10 mg/kg, po bid for 3 days and measured after 12 hrs post last dose by qRT-PCR analysis; format: functional, organism-based
[25] = system: Mus musculus; assay: Toxicity in SCID/Biege mouse xenografted with human 786-O cells assessed as morbidity at 10 mg/kg, po bid for 21 days; format: organism-based; details: in vivo, 504 h
[26] = system: Mus musculus; assay: Toxicity in SCID/Biege mouse xenografted with human 786-O cells assessed as mortality at 10 mg/kg, po bid for 21 days; format: organism-based; details: in vivo, 504 h
[27] = system: Mus musculus; assay: Toxicity in SCID/Biege mouse xenografted with human 786-O cells assessed as effect on body weight at 10 mg/kg, po bid for 21 days; format: organism-based; details: in vivo, 504 h
[28] = molecular target: hERG (KCNH2) (Homo sapiens, UniProt Q12809); assay: Inhibition of human ERG expressed in mammalian cells at 10 uM after 3 mins by QPatch clamp assay; format: cell-based; details: mammalian cells that express human ERG
hERG (KCNH2), sequence (Q12809 whole entry): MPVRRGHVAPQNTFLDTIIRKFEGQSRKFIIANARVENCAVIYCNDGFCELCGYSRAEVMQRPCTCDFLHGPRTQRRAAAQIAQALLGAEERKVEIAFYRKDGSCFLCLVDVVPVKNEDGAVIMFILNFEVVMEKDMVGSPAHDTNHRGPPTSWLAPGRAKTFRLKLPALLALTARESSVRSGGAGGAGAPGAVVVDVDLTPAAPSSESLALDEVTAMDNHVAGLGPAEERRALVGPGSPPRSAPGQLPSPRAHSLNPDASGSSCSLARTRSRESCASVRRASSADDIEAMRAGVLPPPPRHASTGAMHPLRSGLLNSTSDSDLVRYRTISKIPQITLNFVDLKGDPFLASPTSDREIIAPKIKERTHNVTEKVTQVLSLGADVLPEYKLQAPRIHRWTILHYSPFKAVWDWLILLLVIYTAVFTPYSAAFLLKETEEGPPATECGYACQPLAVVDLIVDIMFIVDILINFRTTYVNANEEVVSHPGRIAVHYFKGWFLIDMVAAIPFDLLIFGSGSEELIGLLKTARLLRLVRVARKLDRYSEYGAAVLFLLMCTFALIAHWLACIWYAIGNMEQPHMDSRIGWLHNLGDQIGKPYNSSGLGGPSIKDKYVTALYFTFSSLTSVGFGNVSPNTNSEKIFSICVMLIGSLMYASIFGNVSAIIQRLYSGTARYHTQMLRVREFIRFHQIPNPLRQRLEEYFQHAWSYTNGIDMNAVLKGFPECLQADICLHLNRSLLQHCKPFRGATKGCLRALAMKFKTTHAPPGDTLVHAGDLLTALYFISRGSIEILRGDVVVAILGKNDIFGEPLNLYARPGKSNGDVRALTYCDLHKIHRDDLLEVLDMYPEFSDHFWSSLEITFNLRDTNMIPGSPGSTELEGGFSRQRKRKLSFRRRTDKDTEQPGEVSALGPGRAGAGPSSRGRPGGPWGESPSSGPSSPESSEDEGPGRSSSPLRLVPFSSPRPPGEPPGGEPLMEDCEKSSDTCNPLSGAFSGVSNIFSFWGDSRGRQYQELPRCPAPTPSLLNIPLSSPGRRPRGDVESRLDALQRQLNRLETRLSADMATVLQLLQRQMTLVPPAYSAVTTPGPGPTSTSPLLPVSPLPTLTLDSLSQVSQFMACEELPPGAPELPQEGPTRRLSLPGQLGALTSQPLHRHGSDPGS

[29] = system: 786-0; assay: In vivo inhibition of HIF-2alpha in SCID/Biege mouse xenografted with human 786-O cells assessed as reduction in tumor derived VEGFA protein levels at 10 mg/kg, po bid for 3 days and measured after 12 hrs post last dose by ELISA; format: functional, organism-based

SMILES	fraction unbound at 4 h, 10 µM [1]	concentration at 12 h [2]	Papp A→B at 1 h, 1 µM [3]	clearance [4]	AUC(0-t) [5]	half-life [6]	bioavailability [7]	clearance [8]	AUC(0-t) [9]	AUCt [10]	bioavailability [11]	solubility thermodynamic at 24 h [12]	CLint scaled at 1 µM [13]	CLint scaled at 1 µM [14]	CLint scaled at 1 µM [15]	IC50 [16]	IC50 [17]	IC50 [18]	IC50 [19]	fraction unbound at 4 h, 10 µM [20]	other results
CS(=O)(=O)c1ccc(Oc2cc(F)cc(C#N)c2)c2c1[C@H](O)C(F)(F)C2	0.26	460 nM	2.98 ×10⁻⁶ cm/s	29.2 mL/min/kg	16.4 µM·h	3.3 h	110%	34.6 mL/min/kg	5.12 µM·h	6.2 µM·h	40%	59 µM (≈ 22.6 µg/mL)	22.6 mL/min/kg	< 5 mL/min/kg	5.4 mL/min/kg	> 50 µM	> 50 µM	23 µM	> 50 µM	0.21	fraction unbound at 4 h, 10 µM [21]: 0.29; fraction unbound at 4 h, 10 µM [22]: 0.25; fraction unbound at 4 h, 10 µM [23]: 0.26; inhibition [24]: Active; Activity [25]: Non-Toxic; Activity [26]: Non-Toxic; Activity [27]: Non-Toxic; inhibition at 0.05 h, 10 µM [28]: 8.2%; inhibition [29]: Active
N#Cc1cc(F)cc(Oc2ccc3c(c2C(F)F)[C@@H](O)C(F)(F)S3(=O)=O)c1	0.11	220 nM	2.6 ×10⁻⁶ cm/s	70.6 mL/min/kg	6.1 µM·h	6.5 h	110%	27.2 mL/min/kg	5.49 µM·h	12.6 µM·h	36%	126 µM (≈ 51.1 µg/mL)	9.1 mL/min/kg	< 5 mL/min/kg	< 4 mL/min/kg	> 50 µM	> 50 µM	15.7 µM	13.3 µM	0.37	fraction unbound at 4 h, 10 µM [21]: 0.15; fraction unbound at 4 h, 10 µM [22]: 0.18; fraction unbound at 4 h, 10 µM [23]: 0.38; inhibition [24]: Active; Activity [25]: Non-Toxic; Activity [26]: Non-Toxic; Activity [27]: Non-Toxic; inhibition at 0.05 h, 10 µM [28]: 17%; inhibition [29]: Active
